Test results as given in patent publication US20260216189A1, “TOPICAL COMPOSITIONS CONTAINING A JANUS KINASE INHIBITOR” (Zoetis Services LLC, priority 2023, published 2026).

How the values were obtained:
[1] = PK studies of topical compositions: systemic plasma and skin concentrations, single and repeat dose; format: in vivo
Experimental: Systemic plasma concentrations and skin concentrations 24 hours post dose were assessed for multiple compositions of the invention in a number of PK studies; including compositions with oclacitinib or oclacitinib maleate with API concentrations ranging from 1-10 mg/mL oclacitinib. The compositions tested to date have shown prolonged absorption that lasts at least 72 hours following a single dose and low topical bioavailability of less than 10% with single dose skin concentrations at least 20-80 times that observed in the oral single dose ^14C study. The oral 14C-oclacitinib study determined that a 0.4 mg/kg oral dose of oclacitinib achieved a mean skin concentration of 212 ng equivalents/gram. Permeation and penetration studies with compositions comprising a glycol, glycol ether and DMSO achieved single dose skin concentrations greater (28.4-54.5 μg/g) than that concentration achieved following oral administration, as mentioned above, and well above the reported oclacitinib IC50's for pro-inflammatory and pruritogenic cytokines.
The rate and amount of topical absorption can be a non-linear function of the API concentration of the composition. The topical compositions of the invention minimized systemic plasma oclacitinib concentrations while maintaining high skin concentrations. […] The studies to date and formulations described herein have shown that the compositions deliver skin concentrations greater than those observed with oral dosing. […] The topical single dose bioavailability is low, less than 5% when administered to an area that limits oral exposure from licking. […] Formulations with a lower oclacitinib concentration had lower systemic exposures.

[2] = subsequent study, 2-3 sprays of topical solution, skin concentrations; format: in vivo; conditions: 2.5-10 mg/mL, about 0.25 to 0.5 mL topical
Experimental: In a subsequent study, animals received 2.5-10 mg/mL oclacitinib by applying 2-3 sprays for a total of about 0.25 to 0.5 mL of the topical solution to an area of skin.

[3] = test system: IL-31 induced itch; conditions: orally dosed oclacitinib (0.4-0.6 mg/kg); cited from earlier work
[4] = test system: HDM challenge site (excoriation lesions and erythema); assay: house dust model (HDM) challenge, topical treatment of beagle dogs; colorimeter erythema and lesion scores; format: in vivo; conditions: for Post challenge total lesion scores compared to the saline group: treatment groups vs saline group
Experimental: (§1) The pharmacokinetics and pharmacodynamics (PK/PD) of orally dosed oclacitinib (0.4-0.6 mg/kg) is well understood. […] An oral 14C-oclacitinib study determined that a single 0.4 mg/kg dose achieved a mean skin concentration of 212 ng equivalents/gram of tissue. A house dust model (HDM) was used to assess the efficacy of the compositions described herein. The topical HDM challenge results in excoriation lesions and erythema at the challenge site. In one study, placebo (saline, TO1), triamcinolone acetonide 0.15 mg/mL (T02), oclacitinib maleate 7.5 mg/mL (T03) and oclacitinib maleate 10 mg/mL (T04) were topically administered to beagle dogs (8/group). The weights of drug in T02-T04 were freebase amounts.
Daily assessments were observed through Day 41. Colorimeter measurements provided quantified erythema scores. […] Lesions were observed and scored based on severity of erythema, papules and excoriations at the challenge site.

[5] = in vivo, po, 0.4 mg/kg
Experimental: as §1
Systemic plasma concentrations and skin concentrations 24 hours post dose were assessed for multiple compositions of the invention in a number of PK studies; including compositions with oclacitinib or oclacitinib maleate with API concentrations ranging from 1-10 mg/mL oclacitinib. […] The oral 14C-oclacitinib study determined that a 0.4 mg/kg oral dose of oclacitinib achieved a mean skin concentration of 212 ng equivalents/gram. […]

| Compound | 24-hour post dose skin concentrations following repeat dosing, fold higher ([1]; across study comparisons, repeat vs single dosing) | accumulation in skin and plasma ([1]; following multiple daily administrations) | systemic levels ([1]; following multiple daily doses) | bioavailability ([1]; plasma, topical, administered to an area that limits oral exposure from licking) | systemic plasma concentrations: absorption and terminal phase ([1]; single and repeat dose studies) | PK following topical administration, maleate vs freebase formulations ([1]; topical) | skin concentrations of oclacitinib [2] | Plasma concentrations effective in reducing IL-31 induced itch [3] | erythema reduction compared to saline (colorimeter) ([4]; 7.5 mg/mL topical, Day 36 (P=0.0993)) | area under the curve (AUC) of total lesion scores compared to saline ([4]; 10 mg/mL (p<0.08)) | erythema reduction compared to saline (colorimeter) ([4]; 10 mg/mL topical, Days 27, 28, and 36 (p≤0.0948)) | lesion score reduction after the dosing period ended, versus other treatment groups ([4]; after the 28 day dosing period, observation through Day 41) | erythema reduction compared to saline (colorimeter) ([4]; both concentrations (7.5 and 10 mg/mL), topical once daily, after approximately 1 month of dosing) | Post challenge total lesion scores compared to the saline group [4] | lesion score reduction compared to saline ([4]; spray 7.5 mg/mL, Days 4, 7, 11, 26, 27, 30, and 39) | lesion score reduction compared to saline ([4]; spray 10 mg/mL, Days 7-11, 26, 30, and 32-34) | mean skin concentration [5] | lesion score reduction compared to saline ([4]; triamcinolone 0.15 mg/mL, Day 35) | lesion score reduction compared to saline ([4]; triamcinolone 0.15 mg/mL, Days 4, 8, 10, 11) | erythema reduction compared to saline (colorimeter) ([4]; triamcinolone spray 0.15 mg/mL, Days 12, 14, 19, 24-26, 28-33, and 35-41 (P≤0.0912)) |
| --- | --- | --- | --- | --- | --- | --- | --- | --- | --- | --- | --- | --- | --- | --- | --- | --- | --- | --- | --- | --- |
| CNS(=O)(=O)C[C@H]1CC[C@H](N(C)c2ncnc3[nH]ccc23)CC1 [oclacitinib, N-methyl-1-{trans-4-[methyl (7H-pyrrolo[2,3-d]pyrimidin-4-yl)amino]cyclohexyl}-methanesulfonamide] | at least 5 times | Accumulation in skin and plasma was observed | at a concentration that has shown efficacy in reducing IL-31 induced itch | < 5% | prolonged absorption with the terminal phase not evident 10 days post dose | comparable | acceptable skin concentrations | greater than 12 ng/ml | significantly greater reduction in erythema | significantly lower | significantly greater reduction | continued to demonstrate significant reduction in lesion scores | significant erythema reductions | significantly higher | significantly greater lesion score reductions | significantly greater lesion score reductions | 212 ng equivalents/gram | – | – | – |
| CC1(C)O[C@@H]2C[C@H]3[C@@H]4CCC5=CC(=O)C=C[C@]5(C)[C@@]4(F)[C@@H](O)C[C@]3(C)[C@]2(C(=O)CO)O1 [triamcinolone, triamcinolone acetonide] | – | – | – | – | – | – | – | – | – | – | – | – | – | significantly higher | – | – | – | significantly lesser reduction | significantly greater reductions in lesion scores | significantly less reduction in erythema |
| oclacitinib maleate | – | – | – | – | – | comparable | – | – | – | – | – | – | – | – | – | – | – | – | – | – |
